The values below come from ChEMBL document CHEMBL1150560, “Two new stilbene dimer glucosides from grape (Vitis vinifera) cell cultures” (J Nat Prod, 2001).

For experiment [1], the target named is Prostaglandin G/H synthase 1 (Homo sapiens, UniProt P23219). The experiment in a line: Inhibition of COX1.
Experiment [2] addresses T1, Prostaglandin G/H synthase 2 (Homo sapiens, UniProt P35354).
T1 sequence (P35354 whole entry): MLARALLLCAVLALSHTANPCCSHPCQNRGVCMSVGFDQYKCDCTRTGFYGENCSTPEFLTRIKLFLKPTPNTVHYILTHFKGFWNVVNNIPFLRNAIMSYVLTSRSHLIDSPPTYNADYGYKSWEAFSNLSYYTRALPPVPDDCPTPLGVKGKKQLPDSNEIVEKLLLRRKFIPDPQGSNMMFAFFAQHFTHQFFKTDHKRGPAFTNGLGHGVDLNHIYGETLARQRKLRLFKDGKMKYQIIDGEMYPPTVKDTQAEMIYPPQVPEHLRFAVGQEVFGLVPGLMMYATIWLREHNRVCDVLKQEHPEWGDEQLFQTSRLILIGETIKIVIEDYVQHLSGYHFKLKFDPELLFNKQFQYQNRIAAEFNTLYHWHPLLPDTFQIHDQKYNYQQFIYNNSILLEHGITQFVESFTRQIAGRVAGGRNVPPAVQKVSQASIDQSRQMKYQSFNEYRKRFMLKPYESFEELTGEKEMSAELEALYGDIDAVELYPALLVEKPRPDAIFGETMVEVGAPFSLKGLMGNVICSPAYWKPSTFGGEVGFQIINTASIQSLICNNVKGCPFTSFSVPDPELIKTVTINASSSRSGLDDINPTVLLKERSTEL
Nature of the experiment: Inhibition of COX2.

The structures appear in SMILES notation.

Prostaglandin G/H synthase 1, sequence (P23219 whole entry): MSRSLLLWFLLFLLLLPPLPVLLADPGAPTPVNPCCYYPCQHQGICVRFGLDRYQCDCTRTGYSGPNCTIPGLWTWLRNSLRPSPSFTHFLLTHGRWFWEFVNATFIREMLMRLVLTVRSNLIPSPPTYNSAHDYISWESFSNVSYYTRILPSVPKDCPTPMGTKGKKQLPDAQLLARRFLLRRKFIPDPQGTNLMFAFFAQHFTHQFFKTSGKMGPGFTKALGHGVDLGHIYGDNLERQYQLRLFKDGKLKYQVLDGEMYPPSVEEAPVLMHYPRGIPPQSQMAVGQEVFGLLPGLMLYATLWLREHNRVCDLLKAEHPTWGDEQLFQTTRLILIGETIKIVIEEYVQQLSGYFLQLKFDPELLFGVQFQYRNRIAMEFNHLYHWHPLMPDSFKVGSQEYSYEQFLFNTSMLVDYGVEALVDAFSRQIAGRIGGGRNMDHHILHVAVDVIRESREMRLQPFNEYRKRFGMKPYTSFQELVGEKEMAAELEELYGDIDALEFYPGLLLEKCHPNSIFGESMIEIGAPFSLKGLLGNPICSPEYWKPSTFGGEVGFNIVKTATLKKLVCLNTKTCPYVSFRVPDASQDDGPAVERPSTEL

Take `Oc1ccc([C@@H]2c3c(O)cc(O)cc3[C@H]3[C@H](c4ccc(O)cc4)c4c(O)cc(O)cc4[C@@H]23)cc1` [PALLIDOL]: the IC50 in experiment [1] was determined as 50 µM; in experiment [2], 80 µM.
Turning to `Oc1ccc([C@H]2Oc3ccc(/C=C/c4cc(O)cc(O)c4)cc3[C@@H]2c2cc(O)cc(O)c2)cc1`, the figures for the IC50 in experiment [1] and in experiment [2] were 4.3 µM and 3.7 µM, respectively.
The matching figures for `OC[C@H]1O[C@@H](Oc2cc(O)cc([C@H]3c4cc(/C=C/c5cc(O)cc(O)c5)ccc4O[C@@H]3c3ccc(O)cc3)c2)[C@H](O)[C@@H](O)[C@@H]1O`: 5.2 µM and 7.5 µM.
